Drawing on patent US20260325533A1, “CDK INHIBITOR COMPOUNDS” (ALEKSIA THERAPEUTICS, INC., priority 2023, published 2026), this text covers IC50 for eight compounds.

Molecules are shown by their SMILES. pIC50: −log10 of the molar value. Like-named read-outs stand apart in the source and are kept apart here. A value given as a limit tells only on which side of the number the result lay.

Format in all cases: biochemical
For assay [1], the target named is CDK2/CCNE1 (Homo sapiens, UniProt P24941). The assay can be described thus: CDK2 homogeneous time-resolved fluorescence (HTRF) kinase assay. Conditions: CDK2/CCNE. A digest of the protocol:
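CDK2/CCNE1 (3 nM) preincubated 20 min at 23 °C with compound, then reacted 60 min at 23 °C with 1 mM ATP and 50 nM ULight-4E-BP1 (Thr37/46) peptide. Stopped with EDTA, phospho-peptide detected by Eu-anti-phospho antibody (665 nm or 665/615 ratio). IC50 from 11-point half-log titrations typically starting at 10 μM.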
(In TR-FRET formats the signal depends on donor and acceptor labels being close together.)

Assay [2] concerns the target CDK1/CCNB1 (Homo sapiens, UniProt P06493). The assay can be described thus: CDK1 homogeneous time-resolved fluorescence (HTRF) kinase assay. Conditions: CDK1/CCNB. A digest of the protocol: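 Kinase activity is measured as Lance signal (665 nm, or 665/615 nm ratio) from europium-labelled anti-phospho-Thr37/46 antibody binding ULight-4E-BP1 peptide. Reactions contain 0.5 nM enzyme, 1 mM ATP, 1% DMSO and run 60 min at 23 °C before EDTA quench.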

In assay [3] the target is CDK4/CCND3 (Homo sapiens, UniProt P11802). Nature of the assay: CDK4 homogeneous time-resolved fluorescence (HTRF) kinase assay. Conditions: CDK4/CCND. The method in brief: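 Inhibition of CDK4/CCND3 (1.5 nM) was measured at high ATP (1 mM) using 50 nM ULight-labelled 4E-BP1 Thr37/46 peptide; detection used 2 nM europium anti-phospho antibody after EDTA quench. IC50 values came from 11-point half-log titrations typically starting at 10 μM.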

Assay [4] deals with CDK6/CCND1 (Homo sapiens, UniProt Q00534). Nature of the assay: CDK6 homogeneous time-resolved fluorescence (HTRF) kinase assay. Conditions: CDK6/CCND. A digest of the protocol:
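1 nM enzyme, 1 mM ATP, 50 nM ULight-4E-BP1 (Thr37/46) peptide, 1% DMSO; 20 min compound preincubation, 60 min reaction, 23 °C. EDTA stop, 2 nM Eu-anti-phospho-4E-BP1 antibody 60 min. TR-FRET 665 nm (or 665/615 ratio); IC50 from 11-point half-log titration, top 10 μM.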

[5] abbreviates: x = IC50 >250 nM, read-out: CDK1/CCNB IC50 (>250 nM column).
The mark [6] stands for this setting: x = IC50 >250 nM, read-out: CDK4/CCND IC50 (>250 nM column).
[7] abbreviates: x = IC50 >250 nM, read-out: CDK6/CCND IC50 (>250 nM column).
The mark [8] stands for this setting: x = IC50 25-250 nM, read-out: CDK2/CCNE IC50 (25-250 nM).
[9] abbreviates: <25 nM, read-out: CDK2/CCNE IC50, <25 nM.
Where [10] appears, read: >250 nM, read-out: CDK1/CCNB IC50 >250 nM.
Setting [11] is: 25-250 nM, read-out: CDK4/CCND IC50, 25-250 nM.
The mark [12] stands for this setting: >250 nM, 1 mM ATP, read-out: CDK6/CCND IC50, >250 nM.
The mark [13] stands for this setting: 25-250 nM, 1 mM ATP, read-out: CDK6/CCND IC50, 25-250 nM.

Chain of CDK6/CCND1 (Q00534 whole entry): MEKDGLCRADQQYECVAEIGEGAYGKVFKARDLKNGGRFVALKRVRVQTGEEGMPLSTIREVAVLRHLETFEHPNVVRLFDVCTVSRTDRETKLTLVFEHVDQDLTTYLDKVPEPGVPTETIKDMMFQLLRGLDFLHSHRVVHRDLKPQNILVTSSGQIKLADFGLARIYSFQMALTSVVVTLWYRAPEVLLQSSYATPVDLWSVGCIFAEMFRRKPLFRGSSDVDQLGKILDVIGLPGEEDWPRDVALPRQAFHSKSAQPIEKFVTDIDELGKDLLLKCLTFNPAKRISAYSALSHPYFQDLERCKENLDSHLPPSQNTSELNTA
Chain of CDK6/CCND1 (P24385 whole entry partner): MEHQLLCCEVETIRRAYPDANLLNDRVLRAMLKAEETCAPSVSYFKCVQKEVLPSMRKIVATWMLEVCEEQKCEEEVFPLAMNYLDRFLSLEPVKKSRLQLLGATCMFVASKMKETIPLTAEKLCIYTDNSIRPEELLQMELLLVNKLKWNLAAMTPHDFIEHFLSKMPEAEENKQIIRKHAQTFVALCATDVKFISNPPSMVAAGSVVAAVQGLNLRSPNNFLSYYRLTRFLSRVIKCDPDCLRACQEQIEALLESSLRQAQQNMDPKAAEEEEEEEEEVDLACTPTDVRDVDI
Chain of CDK1/CCNB1 (P06493 whole entry): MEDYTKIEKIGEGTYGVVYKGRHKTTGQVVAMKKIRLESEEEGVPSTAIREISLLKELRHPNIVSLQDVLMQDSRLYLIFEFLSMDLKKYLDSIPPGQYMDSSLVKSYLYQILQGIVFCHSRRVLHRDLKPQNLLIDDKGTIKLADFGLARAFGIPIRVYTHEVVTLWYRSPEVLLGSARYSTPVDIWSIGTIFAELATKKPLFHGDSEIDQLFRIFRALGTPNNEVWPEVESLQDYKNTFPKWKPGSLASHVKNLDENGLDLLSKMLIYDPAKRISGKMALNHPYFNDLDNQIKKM
Chain of CDK1/CCNB1 (P14635 whole entry partner): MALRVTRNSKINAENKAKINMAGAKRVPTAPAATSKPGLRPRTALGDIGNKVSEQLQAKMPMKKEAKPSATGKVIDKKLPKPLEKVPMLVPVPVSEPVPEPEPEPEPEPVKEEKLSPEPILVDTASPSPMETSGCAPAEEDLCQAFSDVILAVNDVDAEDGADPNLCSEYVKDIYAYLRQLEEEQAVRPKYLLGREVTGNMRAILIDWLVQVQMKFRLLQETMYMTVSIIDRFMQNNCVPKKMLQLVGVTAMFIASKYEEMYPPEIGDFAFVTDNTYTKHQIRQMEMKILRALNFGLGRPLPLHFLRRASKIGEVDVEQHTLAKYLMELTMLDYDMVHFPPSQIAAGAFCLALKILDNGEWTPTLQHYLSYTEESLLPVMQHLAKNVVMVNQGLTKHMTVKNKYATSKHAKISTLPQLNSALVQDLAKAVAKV
Chain of CDK4/CCND3 (P11802 whole entry): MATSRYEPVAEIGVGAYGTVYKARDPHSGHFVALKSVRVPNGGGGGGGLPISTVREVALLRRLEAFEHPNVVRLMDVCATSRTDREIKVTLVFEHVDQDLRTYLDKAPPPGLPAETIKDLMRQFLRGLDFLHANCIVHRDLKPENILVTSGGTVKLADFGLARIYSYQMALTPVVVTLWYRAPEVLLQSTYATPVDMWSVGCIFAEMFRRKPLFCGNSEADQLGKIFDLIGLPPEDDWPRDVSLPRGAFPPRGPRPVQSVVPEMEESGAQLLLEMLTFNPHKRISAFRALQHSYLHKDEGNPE
Chain of CDK4/CCND3 (P30281 whole entry partner): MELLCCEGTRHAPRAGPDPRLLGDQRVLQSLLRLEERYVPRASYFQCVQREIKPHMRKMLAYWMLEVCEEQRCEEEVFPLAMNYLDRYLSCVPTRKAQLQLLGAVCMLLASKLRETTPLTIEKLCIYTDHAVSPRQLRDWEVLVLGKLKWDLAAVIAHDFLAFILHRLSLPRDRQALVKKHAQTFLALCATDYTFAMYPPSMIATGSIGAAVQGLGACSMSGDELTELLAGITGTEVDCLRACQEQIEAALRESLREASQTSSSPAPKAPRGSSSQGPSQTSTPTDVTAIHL

For the compound `CS(=O)(=O)c1ccc(Nc2cc3c(C#Cc4ccc(CN5CCOCC5)cc4)nccc3cn2)cc1` [Example 666, N-(4-(methylsulfonyl)phenyl)-5-((4-(morpholinomethyl)phenyl)ethynyl)-2,6-naphthyridin-3-amine], the pIC50 was greater than 7.60 in assay [1] (x = IC50 <25 nM, read-out: CDK2/CCNE IC50 (<25 nM)); less than 6.60 in assay [2] (setting [5]); less than 6.60 in assay [3] (setting [6]); less than 6.60 in assay [4] (setting [7]).
For the compound `Cc1c(-c2nccc3cnc(Nc4ccc(S(C)(=O)=O)cc4)cc23)ccc2c1cnn2C(=O)NC(C)(C)C` [Example 668, N-(tert-butyl)-4-methyl-5-(7-((4-(methylsulfonyl)phenyl)amino)-2,6-naphthyridin-1-yl)-1H-indazole-1-carboxamide], the pIC50 in assay [1] (setting [8]) is 6.60 to 7.60; in assay [2] (setting [5]), less than 6.60; in assay [3] (setting [6]), less than 6.60; in assay [4] (setting [7]), less than 6.60.
For the compound `C/C=C/S(=O)(=O)c1ccc(Nc2cc3c(N4CCC(C#N)CC4)nccc3cn2)cc1` [Example 670, (E)-1-(7-((4-(prop-1-en-1-ylsulfonyl)phenyl)amino)-2,6-naphthyridin-1-yl)piperidine-4-carbonitrile], the pIC50 in assay [1] (setting [8]) is 6.60 to 7.60; in assay [2] (setting [5]), less than 6.60; in assay [3] (setting [6]), less than 6.60; in assay [4] (setting [7]), less than 6.60.
Regarding `CC(=O)NS(=O)(=O)c1ccc(Nc2cc3c(-c4ccc5c(cnn5CC(O)(C(F)(F)F)C(F)(F)F)c4C)nccc3cn2)cc1` [Example 678, N-((4-((5-(4-methyl-1-(3,3,3-trifluoro-2-hydroxy-2-(trifluoromethyl)propyl)-1H-indazol-5-yl)-2,6-naphthyridin-3-yl)amino)phenyl)sulfonyl)acetamide], the pIC50 in assay [1] (setting [8]) was 6.60 to 7.60; in assay [2] (setting [5]) it was less than 6.60; in assay [3] (setting [6]), less than 6.60; in assay [4] (setting [7]), less than 6.60.
With `CCN[S@](=N)(=O)c1ccc(Nc2cc3c(-c4ccc5c(cnn5CC(O)(C(F)(F)F)C(F)(F)F)c4C)nccc3cn2)cc1` [Example 682, (S)-N-ethyl-4-((5-(4-methyl-1-(3,3,3-trifluoro-2-hydroxy-2-(trifluoromethyl)propyl)-1H-indazol-5-yl)-2,6-naphthyridin-3-yl)amino)benzenesulfonimidamide], the pIC50 in assay [1] (setting [9]) was greater than 7.60; in assay [2] (setting [10]) it was less than 6.60; in assay [3] (setting [11]), 6.60 to 7.60; in assay [4] (setting [12]) it was less than 6.60.
Take `N=S(=O)(c1ccc(Nc2cc3c(C#Cc4cnc5c(c4)NC(=O)CO5)nccc3cn2)cc1)C1CCC1` (centres unmarked) [Example 686, 7-((7-((4-(cyclobutanesulfonimidoyl)phenyl)amino)-2,6-naphthyridin-1-yl)ethynyl)-1H-pyrido[2,3-b][1,4]oxazin-2(3H)-one]: the pIC50 in assay [1] (setting [9]) is greater than 7.60; in assay [2] (setting [10]), less than 6.60; in assay [3] (setting [11]), 6.60 to 7.60; in assay [4] (setting [13]), 6.60 to 7.60.
Take `CC1(C)C(=O)Nc2cc(C#Cc3nccc4cnc(Nc5ccc([S@@](=N)(=O)NC6CCC6)cc5)cc34)ccc21` [Example 687, (S)-N-cyclobutyl-4-((5-((3,3-dimethyl-2-oxoindolin-6-yl)ethynyl)-2,6-naphthyridin-3-yl)amino)benzenesulfonimidamide]: the pIC50 is greater than 7.60 in assay [1] (setting [9]); 6.60 to 7.60 in assay [2] (25-250 nM, read-out: CDK1/CCNB IC50, 25-250 nM); 6.60 to 7.60 in assay [3] (setting [11]); 6.60 to 7.60 in assay [4] (setting [13]).
Take `CNS(=O)(=O)c1ccc(Nc2cc3c(-c4ccc5c(cnn5CC(O)(C(F)(F)F)C(F)(F)F)c4C)nccc3cn2)cc1` [Example 696, N-methyl-4-((5-(4-methyl-1-(3,3,3-trifluoro-2-hydroxy-2-(trifluoromethyl)propyl)-1H-indazol-5-yl)-2,6-naphthyridin-3-yl)amino)benzenesulfonamide]: the pIC50 was greater than 7.60 in assay [1] (setting [9]); less than 6.60 in assay [2] (setting [10]); less than 6.60 in assay [3] (>250 nM, read-out: CDK4/CCND IC50, >250 nM); less than 6.60 in assay [4] (setting [12]).
